Laboratory results reported in US8475851B2, “Preparations with wood extracts of locust trees” (Symrise AG, priority 2011, dated 2013).

Test system: 3T3-L1 cells
Assay: Adipogenesis assay
Format: cell-based, mouse
Details: for Adipogenesis inhibition, result in words: concentration tested
Experimental: 3T3-L1 cells (mouse embryonic fibroblast-like adipocyte cell line) are seeded in a 48-well plate with collagen I coating at a concentration of 3×10^4 cells/well. After culture for 72 h at 37° C. and 5% CO2 in DMEM (Dulbecco's Modified Eagle's Medium), enriched with 10% calf serum, various concentrations of the test samples are added to DMEM, enriched with 10% fetal calf serum supplemented with 1 μg/ml insulin, 0.25 μM dexamethasone and 0.5 mM IBMX (3-isobutyl-1-methylxanthine), and incubated for a further 48 h. The medium is changed, applying DMEM, enriched with 10% fetal calf serum supplemented with 1 μg/ml insulin. After further cultivation for 48 h, the medium is changed again, applying DMEM enriched with 10% fetal calf serum.
After incubation for a further 72 h, the intracellularly stored lipids are quantified as a measure for the differentiation of the cells, by measuring the fluorescence after staining the lipids with the fluorescent dye Nile Red.
The inhibition of adipogenesis in the presence of the test samples is calculated from the following equation:
[formula] with RFU test substance=relative fluorescence units of the wells with test substance and with cells RFU control=relative fluorescence units of the wells without test substance, but with cells RFU control without cells=relative fluorescence units of the wells without test substance and without cells.
IC50 is calculated from the adipogenesis inhibition [%] in a series of dilutions of samples tested. This is the concentration at which adipogenesis is inhibited 50%.

SMILES	Adipogenesis inhibition, result in words	Adipogenesis inhibition (test concentration 0.0003 % (corresponds to content 1.0 wt. % in BIO781/2))	Adipogenesis inhibition (test concentration 0.0005 % (corresponds to content 1.5 wt. % in BIO781/2))
O=c1c(O)c(-c2ccc(O)c(O)c2)oc2cc(O)ccc12 [Fisetin, 3,3′,4′,7-tetrahydroxyflavone]	do not show any activity	No inhibition	–
O=C1c2ccc(O)cc2OC(c2ccc(O)c(O)c2)C1O (stereo not shown) [Fustin, 3,3′,4′,7-tetrahydroxyflavanone]	do not show any activity	–	No inhibition
